Source: patent publication US7407939B2, “Protein kinase inhibitors comprising ATP mimetics conjugated to peptides or peptidomimetics” (CureGenics Ltd., priority 2001, dated 2008)
Where two headings read alike, the source gives them in different places. *1 amine or outer side, *2 acyl side, *3 side chain or, on linkers, in order; H or OH if unused. Where a SMILES comes first, the peptide text is derived from it. Side-chain parts run from the residue outwards. [ ]: non-standard residue; d: D form. The star is where a group is joined. Isoquinoline5sulfonyl = O=S(=O)(c1cccc2cnccc12)*; Ethylenediamine = C(CN[*:2])N[*:1]; hLeu = CC(C)CC[C@H](N)C(=O)O; Nle = CCCC[C@H](N)C(=O)O; Dab = NCC[C@H](N)C(=O)O; Nva = CCC[C@H](N)C(=O)O; βAla = NCCC(=O)O

Legend:
PKB = target: T1, PKB (Homo sapiens, UniProt P31749); assay: PKB in vitro kinase activity assay (soluble His-HA-PKB / SPA bead screening); format: biochemical
T1 construct: His; HA; made in house
T1 sequence (P31749 whole entry, species assumed): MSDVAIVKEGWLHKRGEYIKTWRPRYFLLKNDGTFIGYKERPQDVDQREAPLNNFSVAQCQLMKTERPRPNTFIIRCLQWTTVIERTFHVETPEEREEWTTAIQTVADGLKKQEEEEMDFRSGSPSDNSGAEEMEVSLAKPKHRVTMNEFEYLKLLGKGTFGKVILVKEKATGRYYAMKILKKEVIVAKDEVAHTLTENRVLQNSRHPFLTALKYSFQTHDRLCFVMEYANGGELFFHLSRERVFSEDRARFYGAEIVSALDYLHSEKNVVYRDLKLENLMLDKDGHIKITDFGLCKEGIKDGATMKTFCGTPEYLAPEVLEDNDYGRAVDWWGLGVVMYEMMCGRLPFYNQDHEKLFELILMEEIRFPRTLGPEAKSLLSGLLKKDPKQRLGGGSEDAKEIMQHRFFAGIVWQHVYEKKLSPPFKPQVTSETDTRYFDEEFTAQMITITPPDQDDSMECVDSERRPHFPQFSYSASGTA
Protocol: The enzyme activity measurement is performed as described in the assay for PKA.
Kinase reaction was carried out in final volume of 50 μl. […] The kinase reaction was started by adding 10 μl of 2 μM cold ATP and 0.25 μCi of [γ^33P]-ATP in kinase buffer. The plates were incubated at 27° C. for 1 hr. At the end of the incubation the reaction was stopped by 200 μl of PBS containing 0.1% Triton X-100, 5 mM EDTA, 1 mM ATP and 0.3 mg/ml of Streptavidin-coated SPA bead (Amersham Pharmacia Biotech). After 15 min incubation at room temperature, the reaction mixtures were filtered using Packard GF/B 96-well plates. The plates were washed twice with 2M NaCl and 1% orthophosphoric acid followed by ethanol wash and 1 h air-dry. The radioactivity was counted using microplate counter Packard Top Count

PKA = target: T2, PKA (Bos taurus, UniProt P00517); assay: In vitro PKA kinase activity assay (kemptide / SPA beads); format: biochemical;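 further: Cell-free assay of purified PKA catalytic subunit phosphorylating the 7-mer kemptide substrate, run in MOPS buffer with magnesium acetate and BSA, with blank wells lacking enzyme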
T2 construct: purchased Promega
Protocol: PKA enzyme was purchased from Promega. PKA activity is assayed on a 7-mer peptide, LRRASLG, known as kemptide. The assay is carried out in 96-well plates, in a final volume of 50 μl per well. The reaction mixture includes various concentrations of the inhibitor, 50 mM MOPS, 10 mM MgAc, 0.2 mg/ml BSA, 10 μM ATP, 20 μM Kemptide and 1 μCi γ^32P ATP. Reaction is started with addition of 15 μl of the catalytic subunit of PKA diluted in 0.1 mg/ml BSA, 0.4 U/well. Two blank wells without enzyme are included in every assay. The plates are agitated continuously at 30° C. for 10′ or at 27° C. for 1 hour. Reaction is stopped by addition of 12 μl 200 mM EDTA. 20 μl aliquots of the assay mixture are spotted onto 2 cm^2 phosphocellulose strips (e.g. Whatman P81) and immersed in 75 mM phosphoric acid (10 ml per sample). The phosphocellulose strips are washed 6 times. Washes are done in continuous swirling for 5 minutes, last wash is in acetone. After air drying the strips, radiation is measured by scintillation spectrometry.
Screening compounds for PKA inhibition was performed in 96-well plate using SPA beads, as described below for PKB with the following modifications; The enzyme substrate was 5 μM biotinylated-kemptide peptide (biotin-[sequence]). The kinase buffer was 50 mM MOPS pH 7, 0.2 mg/ml BSA, 10 mM Magnesium acetate. PKA (0.4 unit) diluted in 0.1 mg/ml BSA was added to each well.

PC-3 cells = assay: ssDNA apoptosis ELISA (induction of apoptosis in prostate cancer cells); format: cell-based; settings: 50 μM, optical density of treated divided by untreated cells
Protocol: Cells were assayed for Apoptosis using the ssDNA Apoptosis ELISA kit (Chemicon International Inc.). Cells were seeded in 96-well plates (5000 cells/well) and treated with different concentrations of the inhibitors. At different time point, plates were centrifuges at 200 g for 5 min, medium was removed and the cells were fixed with 80% methanol in PBS for 30 min at room temperature. Plates were dried by floating in a waterbath at 37° C. for 20 minutes. 50 μl of Formamide was added to each well and incubate at room temperature for 10 min. Plates were heated to 75° C. in a circulating waterbath for 10 min, cooled in refrigerator for 5 min, and then formamide was removed. Plates were blocked by 3% non-fat dry milk in distilled water (w/v) for 1 hr at 37° C. Blocking was removed and 100 μl of antibody mixture (primary monoclonal antibody to ssDNA and HRP-labelled anti-mouse IgM) was added to each well. Plates were monitored for colour development by ABTS using microplate reader at 405 nm.
DNA in apoptotic cells is sensitive to denaturation by formamide in contrast to necrotic cells. This sensitivity is due to changes in apoptotic cells chromatin. The specific denaturation was detected with monoclonal antibody to single stranded DNA. Using ssDNA Apoptosis ELISA kit (Chemicon International, Inc.) chimeric compounds were analyzed for their potential to induce apoptosis in PC-3 cells compared to TRAIL (TNF-related apoptosis-inducing ligand), a known apoptotic agent (R&D Systems, Inc.). Results are presented in values of apoptotic index which is calculated by dividing the optical density of treated and untreated cells.

[1] = chimeric PTR compounds (peptide conjugated to isoquinoline small molecule), read-out: PKB IC50
[2] = chimeric PTR compounds (peptide conjugated to isoquinoline small molecule), read-out: PKA IC50

Structure (SMILES)	IC50 (PKB; FIG. 1, synergistic effect of conjugation, read-out: activity (PKB inhibition)) [nM]	IC50 (PKB; [1]) [nM]	IC50 (PKA; Table 2, chimeric compounds, read-out: Activity PKA) [nM]	IC50 (PKA; [2]) [nM]	Apoptotic index (48 hours) (PC-3 cells)
C[C@@H](O)[C@H](NC(=O)[C@H](CCCNC(=N)N)NC(=O)[C@@H]1CCCN1C(=O)[C@@H](N)CCCNC(=N)N)C(=O)N[C@@H](CCC(=O)NCCNS(=O)(=O)c1cccc2cnccc12)C(=O)N[C@@H](CO)C(=O)N[C@@H](Cc1ccccc1)C(N)=O [PTR 6016] (H-RPRTE([Ethylenediamine-Isoquinoline5sulfonyl])SF-NH2; N-terminus assumed)	900	1000	500	100	3.4
C[C@@H](O)[C@H](NC(=O)[C@H](CCCNC(=N)N)NC(=O)[C@@H]1CCCN1C(=O)[C@@H](N)CCCNC(=N)N)C(=O)N[C@@H](CCC(=O)NCCC(=O)NCCNS(=O)(=O)c1cccc2cnccc12)C(=O)N[C@@H](CO)C(=O)N[C@@H](Cc1ccccc1)C(N)=O [compound 6082] (H-RPRTE([βAla-Ethylenediamine-Isoquinoline5sulfonyl])SF-NH2; N-terminus assumed)	–	5540	–	200	2.6
CCCC[C@H](NC(=O)[C@H](CO)NC(=O)[C@H](CCC(=O)NCCC(=O)NCCNS(=O)(=O)c1cccc2cnccc12)NC(=O)[C@H](CCCC)NC(=O)[C@H](CCCNC(=N)N)NC(=O)[C@@H]1CCCN1C(=O)[C@@H](N)CCCNC(=N)N)C(N)=O [compound 6096] (H-RPR[Nle]E([βAla-Ethylenediamine-Isoquinoline5sulfonyl])S[Nle]-NH2; N-terminus assumed)	–	930	–	200	3.2

Continued, in another order:

IC50 (PKB; FIG. 1, synergistic effect of conjugation, read-out: activity (PKB inhibition)) [nM]	IC50 (PKB; [1]) [nM]	IC50 (PKA; Table 2, chimeric compounds, read-out: Activity PKA) [nM]	IC50 (PKA; [2]) [nM]	Structure (SMILES)	Apoptotic index (48 hours) (PC-3 cells)
–	570	–	500	CCCC[C@H](NC(=O)[C@H](CCCNC(=N)N)NC(=O)[C@@H]1CCCN1C(=O)[C@@H](N)CCCNC(=N)N)C(=O)N[C@@H](CCC(=O)NCCC(=O)NCCNS(=O)(=O)c1cccc2cnccc12)C(=O)N[C@@H](CO)C(=O)N[C@@H](Cc1ccccc1)C(N)=O [compound 6086]	2.5
–	413	–	195	CCCC[C@H](NC(=O)[C@H](CCCNC(=N)N)NC(=O)[C@@H]1CCCN1C(=O)[C@@H](N)CCCNC(=N)N)C(=O)N[C@@H](CCC(=O)NCCC(=O)NCCNS(=O)(=O)c1cccc2cnccc12)C(=O)N[C@@H](CCN)C(=O)N[C@@H](Cc1ccccc1)C(N)=O [compound 6140] (H-RPR[Nle]E([βAla-Ethylenediamine-Isoquinoline5sulfonyl])[Dab]F-NH2; N-terminus assumed)	4.0
–	5000	–	5000	CCC[C@H](NC(=O)[C@H](CCCNC(=N)N)NC(=O)[C@@H]1CCCN1C(=O)[C@@H](N)CCCNC(=N)N)C(=O)N[C@@H](CCC(=O)NCCC(=O)NCCNS(=O)(=O)c1cccc2cnccc12)C(=O)N[C@@H](C)C(=O)N[C@@H](CCC(C)C)C(N)=O [compound 6152] (H-RPR[Nva]E([βAla-Ethylenediamine-Isoquinoline5sulfonyl])A[hLeu]-NH2; N-terminus assumed)	1.5
